Columns and labels:
Type in all cases: in vivo
indian jointvetch [1] = assay: Herbicidal activity test against upland field weeds (soil treatment test); parameters: key to Soil treatment herbicidal activity, Indian jointvetch: 0 (no control); 100 (complete control); settings: 50 g ai/ha, scale 0 (no control) to 100 (complete control)
In short: (§1)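 Weed control scored visually on a 0 (none) to 100 (complete) scale versus untreated pots at 14 or 21 days in greenhouse (30±5 °C, 14 h light). Test compounds, 50 or 75 g a.i./ha in 50% acetone/0.1% Tween-20, hand-sprayed onto soil one day post-sowing.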

sorghum = assay: as above; parameters: key to Soil treatment herbicidal activity, Sorghum: 0 (no control); 100 (complete control); settings: 50 g ai/ha, scale 0 (no control) to 100 (complete control); for plant injury at 50 g/ha: Sorghum
In short: as §1

cocklebur = assay: Herbicidal activity test against upland field weeds (foliar treatment test); parameters: key to Foliar treatment herbicidal activity, Cocklebur: 0 (no control); 100 (complete control); settings: 50 g ai/ha, scale 0-100; for pest or weed control at 50 g/ha: Xanthium strumarium
In short: (§2)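 Visual 0–100 control ratings relative to untreated plants, taken 14 (or 21) days after spraying foliage at 50 or 75 g a.i./ha. Spray solution: 50% acetone with 0.1% Tween-20; plants kept in greenhouse at 30±5 °C, 14 h light/10 h dark.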

quack grass = assay: Herbicidal activity test against upland field weeds (soil treatment test); parameters: key to Soil treatment herbicidal activity, quack grass: 0 (no control); 100 (complete control); settings: 50 g ai/ha, scale 0 (no control) to 100 (complete control)
In short: as §1

bindweed [2] = assay: as above; parameters: key to Soil treatment herbicidal activity, Bindweed: 0 (no control); 100 (complete control); settings: 50 g ai/ha, scale 0 (no control) to 100 (complete control)
In short: as §1

bindweed [3] = assay: Herbicidal activity test against upland field weeds (foliar treatment test); parameters: key to Foliar treatment herbicidal activity, Bindweed: 0 (no control); 100 (complete control); settings: 50 g ai/ha, scale 0-100
In short: as §2

indian jointvetch [4] = assay: as above; parameters: key to Foliar treatment herbicidal activity, Indian jointvetch: 0 (no control); 100 (complete control); settings: 50 g ai/ha, scale 0-100
In short: as §2

velvetleaf = assay: Herbicidal activity test against upland field weeds (soil treatment test); parameters: key to Soil treatment herbicidal activity, velvet leaf: 0 (no control); 100 (complete control); settings: 50 g ai/ha, scale 0 (no control) to 100 (complete control)
In short: as §1

barnyard grass = assay: Herbicidal activity test against upland field weeds (foliar treatment test); parameters: key to Foliar treatment herbicidal activity, barnyard grass: 0 (no control); 100 (complete control); settings: 50 g ai/ha, scale 0-100; for pest or weed control at 50 g/ha: Echinochloa crus-galli
In short: as §2

corn = assay: Phytotoxicity test for upland field crops (foliar treatment test); parameters: key: 0 (no harm); 9 (complete withered)
In short: (§3)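 Spray-booth foliar treatment of greenhouse-grown crops at 19˜300 g a.i./ha. Visual crop injury was scored 0–9 against untreated plants at 7 and 14 days.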

wheat = assay: as above; parameters: key: 0 (no harm); 9 (complete withered)
In short: as §3

soybean = assay: as above; parameters: key: 0 (no harm); 9 (complete withered)
In short: as §3

cotton = assay: as above; parameters: key: 0 (no harm); 9 (complete withered)
In short: as §3

rice = assay: as above; parameters: key: 0 (no harm); 9 (complete withered)
In short: as §3

[5] = 50 g ai/ha, Corn (7 days after treatment)
[6] = 50 g ai/ha, Corn (14 days after treatment)
[7] = 100 g ai/ha, Corn (7 days after treatment)
[8] = 100 g ai/ha, Corn (14 days after treatment)
[9] = 50 g ai/ha, Wheat (7 days after treatment)
[10] = 50 g ai/ha, Wheat (14 days after treatment)
[11] = 100 g ai/ha, Wheat (7 days after treatment)
[12] = 100 g ai/ha, Wheat (14 days after treatment)
[13] = 50 g ai/ha, Soybean (7 days after treatment)
[14] = 50 g ai/ha, Soybean (14 days after treatment)
[15] = 100 g ai/ha, Soybean (7 days after treatment)
[16] = 100 g ai/ha, Soybean (14 days after treatment)
[17] = 50 g ai/ha, Cotton (7 days after treatment)
[18] = 50 g ai/ha, Cotton (14 days after treatment)
[19] = 100 g ai/ha, Cotton (7 days after treatment)
[20] = 100 g ai/ha, Cotton (14 days after treatment)
[21] = 50 g ai/ha, Rice (7 days after treatment)
[22] = 50 g ai/ha, Rice (14 days after treatment)
[23] = 100 g ai/ha, Rice (7 days after treatment)
[24] = 100 g ai/ha, Rice (14 days after treatment)

Structure (SMILES) | Soil treatment herbicidal activity, Indian jointvetch (indian jointvetch [1]) | pest or weed control at 50 g/ha (cocklebur) | Soil treatment herbicidal activity, quack grass (quack grass) | pest or weed control at 50 g/ha (bindweed [3]) | pest or weed control at 50 g/ha (indian jointvetch [4]) | Soil treatment herbicidal activity, velvet leaf (velvetleaf) | Foliar treatment phytotoxicity, Corn (corn; [5]) | Foliar treatment phytotoxicity, Corn (corn; [6]) | Foliar treatment phytotoxicity, Corn (corn; [7]) | Foliar treatment phytotoxicity, Corn (corn; [8]) | Foliar treatment phytotoxicity, Wheat (wheat; [9]) | Foliar treatment phytotoxicity, Wheat (wheat; [10]) | Foliar treatment phytotoxicity, Wheat (wheat; [11]) | Foliar treatment phytotoxicity, Wheat (wheat; [12]) | Foliar treatment phytotoxicity, Soybean (soybean; [13]) | Foliar treatment phytotoxicity, Soybean (soybean; [14]) | Foliar treatment phytotoxicity, Cotton (cotton; [17]) | Foliar treatment phytotoxicity, Cotton (cotton; [18]) | Foliar treatment phytotoxicity, Rice (rice; [21]) | Foliar treatment phytotoxicity, Rice (rice; [22]) | other results
Cn1nnc(COc2nc(C(F)(F)F)ccc2C(=O)Nc2nnnn2C)n1 [Compound No. 2-1, N-(1-methyl-1H-tetrazol-5-yl)-2-((2-methyl-2H-tetrazol-5-yl)methoxy)-6-(trifluoromethyl)nicotinamide] | 0 | 60% | 0 | 60% | 60% | 0 | 2 | 1 | 2 | 2 | 0 | 0 | 0 | 0 | 5 | 6 | 6 | 8 | 4 | 3 | Soil treatment herbicidal activity, Sorghum (sorghum): 0; Soil treatment herbicidal activity, Bindweed (bindweed [2]): 0; pest or weed control at 50 g/ha (barnyard grass): 98%; Foliar treatment phytotoxicity, Soybean (soybean; [15]): 6; Foliar treatment phytotoxicity, Soybean (soybean; [16]): 6; Foliar treatment phytotoxicity, Cotton (cotton; [19]): 6; Foliar treatment phytotoxicity, Cotton (cotton; [20]): 9; Foliar treatment phytotoxicity, Rice (rice; [23]): 5; Foliar treatment phytotoxicity, Rice (rice; [24]): 4
CON(Cc1nnn(C)n1)c1nc(C(F)(F)F)ccc1C(=O)Nc1nnnn1C [Compound No. 2-30, 2-(methoxy((2-methyl-2H-tetrazol-5-yl)methyl)amino)-N-(1-methyl-1H-tetrazol-5-yl)-6-(trifluoromethyl)nicotinamide] | 100 | 98% | 0 | 60% |  | 100 | 0 | 0 | 1 | 1 | 2 | 1 | 3 | 3 | 0 | 0 | 0 | 0 | 3 | 5 | plant injury at 50 g/ha (sorghum): 50%; pest or weed control at 50 g/ha (bindweed [2]): 70%; Foliar treatment herbicidal activity, Indian jointvetch (indian jointvetch [4]): 100; pest or weed control at 50 g/ha (barnyard grass): 95%; Foliar treatment phytotoxicity, Soybean (soybean; [15]): 6; Foliar treatment phytotoxicity, Soybean (soybean; [16]): 6; Foliar treatment phytotoxicity, Cotton (cotton; [19]): 3; Foliar treatment phytotoxicity, Cotton (cotton; [20]): 8; Foliar treatment phytotoxicity, Rice (rice; [23]): 5; Foliar treatment phytotoxicity, Rice (rice; [24]): 7
Cn1nnc(COCc2nc(C(F)(F)F)ccc2C(=O)Nc2nnnn2C)n1 [Compound No. 2-59, N-(1-methyl-1H-tetrazol-5-yl)-2-(((2-methyl-2H-tetrazol-5-yl)methoxy)methyl)-6-(trifluoromethyl)nicotinamide] | 100 | 98% |  | 90% | 98% | 100 | 0 | 2 | 3 | 4 | 0 | 0 | 0 | 0 | 5 | 7 | 3 | 8 | 3 | 4 | Soil treatment herbicidal activity, Sorghum (sorghum): 100; pest or weed control at 50 g/ha (quack grass): 20%; pest or weed control at 50 g/ha (bindweed [2]): 90%; Foliar treatment herbicidal activity, barnyard grass (barnyard grass): 100; Foliar treatment phytotoxicity, Soybean (soybean; [15]): 5; Foliar treatment phytotoxicity, Soybean (soybean; [16]): 7; Foliar treatment phytotoxicity, Cotton (cotton; [19]): 3; Foliar treatment phytotoxicity, Cotton (cotton; [20]): 9; Foliar treatment phytotoxicity, Rice (rice; [23]): 3; Foliar treatment phytotoxicity, Rice (rice; [24]): 6
Cn1nnc(COCc2nc(C(F)(F)F)ccc2C(=O)N(C(=O)c2ccccc2)c2nnnn2C)n1 [Compound No. 2-68, N-benzoyl-N-(1-methyl-1H-tetrazol-5-yl)-2-(((2-methyl-2H-tetrazol-5-yl)methoxy)methyl)-6-(trifluoromethyl)nicotinamide] | 100 |  | 0 |  | 98% | 100 | 4 | 4 | 6 | 6 | 0 | 0 | 1 | 0 | 5 | 5 | 4 | 9 | 6 | 5 | plant injury at 50 g/ha (sorghum): 40%; Foliar treatment herbicidal activity, Cocklebur (cocklebur): 100; Soil treatment herbicidal activity, Bindweed (bindweed [2]): 0; Foliar treatment herbicidal activity, Bindweed (bindweed [3]): 100; Foliar treatment herbicidal activity, barnyard grass (barnyard grass): 100; Foliar treatment phytotoxicity, Soybean (soybean; [15]): 6; Foliar treatment phytotoxicity, Soybean (soybean; [16]): 7; Foliar treatment phytotoxicity, Cotton (cotton; [19]): 5; Foliar treatment phytotoxicity, Cotton (cotton; [20]): 9; Foliar treatment phytotoxicity, Rice (rice; [23]): 6; Foliar treatment phytotoxicity, Rice (rice; [24]): 8
Cn1nnc(COCc2nc(C(F)(F)F)ccc2C(=O)N(c2nnnn2C)S(C)(=O)=O)n1 [Compound No. 2-69, N-(1-methyl-1H-tetrazol-5-yl)-2-(((2-methyl-2H-tetrazol-5-yl)methoxy)methyl)-N-(methylsulfonyl)-6-(trifluoromethyl)nicotinamide] | 100 | 95% | 0 | 40% | 80% | 100 | 4 | 3 |  |  | 0 | 0 |  |  | 6 | 6 | 4 | 9 | 6 | 7 | plant injury at 50 g/ha (sorghum): 70%; pest or weed control at 50 g/ha (bindweed [2]): 70%; pest or weed control at 50 g/ha (barnyard grass): 70%
